Measurements reported in PubChem BioAssay AID1745844 (Carcinogenic Potency Database (CPDB), 2022).
The source made the active and inactive calls. How the calls were made is not given here.

Test system: rodent lifetime carcinogenesis bioassay, tumor incidence TD50
Assay: chronic cancer bioassays in animals – CPDB, compiled studies (AID 1745844)

For `C[C@@H]1CCCCN1N=O`, the TD50 (rat, strain Sprague-Dawley, both sexes, in drinking water, site: any site (literature study), lesion: malignant tumor, dosed 104 weeks, study length 104 weeks) was 20.4 mg/kg/day, the TD50 (rat, strain Sprague-Dawley, both sexes, in drinking water, site: liver, lesion: hepatocellular adenoma, dosed 104 weeks, study length 104 weeks) was 108 mg/kg/day and the TD50 (rat, strain Sprague-Dawley, both sexes, in drinking water, site: n. olfactorius, lesion: ependymoblastoma, dosed 104 weeks, study length 104 weeks) was 22.1 mg/kg/day.

Compound `O=NN1CCCC1c1cccnc1` (stereo not given) has a TD50 (hamster, strain Syrian Golden, females, in drinking water, site: respiratory system, lesion: papilloma, dosed 31 weeks, study length 96 weeks) of 11.5 mg/kg/day, a TD50 (hamster, strain Syrian Golden, males, in drinking water, site: liver, lesion: angiosarcoma, dosed 31 weeks, study length 96 weeks) of 34.4 mg/kg/day and a TD50 (hamster, strain Syrian Golden, males, in drinking water, site: respiratory system, lesion: papilloma, dosed 31 weeks, study length 96 weeks) of 10.1 mg/kg/day.

For `O=S1OCCO1`, the TD50 (mouse, strain Ha/ICR, females, i.p., site: lung, lesion: papillary tumor, dosed 64 weeks, study length 64 weeks) was 1.03 mg/kg/day.

`CC(=O)Nc1ccc(N=Nc2cc(C)ccc2O)cc1` was tested, and the TD50 (mouse, strain B6C3F1, females, in feed, site: all sites, lesion: leukemia + lymphoma, dosed 103 weeks, study length 105 weeks) was 1510 mg/kg/day, the TD50 (mouse, strain B6C3F1, females, in feed, site: all sites, lesion: lymphoma, dosed 103 weeks, study length 105 weeks) was 1680 mg/kg/day and the TD50 (mouse, strain B6C3F1, females, in feed, site: any site (literature study), lesion: several types, types named in the paper, dosed 103 weeks, study length 105 weeks) was 769 mg/kg/day. For the same compound, the TD50 (mouse, strain B6C3F1, females, in feed, site: liver, lesion: hepatocellular adenoma + hepatocellular carcinoma + neoplastic nodule, dosed 103 weeks, study length 105 weeks) was 1020 mg/kg/day, the TD50 (mouse, strain B6C3F1, females, in feed, site: liver, lesion: hepatocellular adenoma + hepatocellular carcinoma, dosed 103 weeks, study length 105 weeks) was 1020 mg/kg/day and the TD50 (mouse, strain B6C3F1, females, in feed, site: liver, lesion: hepatocellular adenoma, dosed 103 weeks, study length 105 weeks) was 1340 mg/kg/day. For the same compound, the TD50 (mouse, strain B6C3F1, males, in feed, site: any site (literature study), lesion: several types, types named in the paper, dosed 103 weeks, study length 104 weeks) was 17200 mg/kg/day, the TD50 (mouse, strain B6C3F1, males, in feed, site: lung, lesion: alveolar/bronchiolar adenoma + alveolar/bronchiolar carcinoma, dosed 103 weeks, study length 104 weeks) was 2440 mg/kg/day and the TD50 (mouse, strain B6C3F1, males, in feed, site: lung, lesion: alveolar/bronchiolar adenoma, dosed 103 weeks, study length 104 weeks) was 2150 mg/kg/day (inactive). For the same compound, the carcinogen call (rat, strain Fischer 344, females, in feed, site: any site (literature study), lesion: several types, types named in the paper, dosed 103 weeks, study length 104 weeks) was “negative (inactive)”, the TD50 (rat, strain Fischer 344, females, in feed, site: liver, lesion: hepatocellular adenoma + hepatocellular carcinoma + neoplastic nodule, dosed 103 weeks, study length 104 weeks) was 46800 mg/kg/day and the TD50 (rat, strain Fischer 344, males, in feed, site: liver, lesion: hepatocellular adenoma + hepatocellular carcinoma + neoplastic nodule, dosed 103 weeks, study length 104 weeks) was 833 mg/kg/day. It also gave a TD50 (rat, strain Fischer 344, males, in feed, site: liver, lesion: hepatocellular carcinoma + neoplastic nodule, dosed 103 weeks, study length 104 weeks) of 833 mg/kg/day, a TD50 (rat, strain Fischer 344, males, in feed, site: liver, lesion: neoplastic nodule, dosed 103 weeks, study length 104 weeks) of 380 mg/kg/day and a TD50 (rat, strain Fischer 344, males, in feed, site: stomach, lesion: all tumors, dosed 103 weeks, study length 104 weeks) of 4090 mg/kg/day.

With `CCN(Cc1cccc(S(=O)(=O)O)c1)c1ccc(C(=C2C=CC(=[N+](CC)Cc3cccc(S(=O)(=O)[O-])c3)C=C2)c2ccc(S(=O)(=O)O)cc2)cc1` the TD50 (mouse, strain C3HeB/FeJ, females, in feed, site: any site (literature study), lesion: malignant tumor, dosed 104 weeks, study length 104 weeks) was 152000 mg/kg/day (inactive), the TD50 (mouse, strain C3HeB/FeJ, females, in feed, site: any site (literature study), lesion: several types, types named in the paper, dosed 104 weeks, study length 104 weeks) was 148000 mg/kg/day and the TD50 (mouse, strain C3HeB/FeJ, females, in feed, site: lung, lesion: several types, types named in the paper, dosed 104 weeks, study length 104 weeks) was 43800 mg/kg/day. The TD50 (mouse, strain C3HeB/FeJ, males, in feed, site: any site (literature study), lesion: malignant tumor, dosed 104 weeks, study length 104 weeks) was 49300 mg/kg/day (inactive), the TD50 (mouse, strain C3HeB/FeJ, males, in feed, site: any site (literature study), lesion: several types, types named in the paper, dosed 104 weeks, study length 104 weeks) was 318000 mg/kg/day and the TD50 (mouse, strain C3HeB/FeJ, males, in feed, site: liver, lesion: several types, types named in the paper, dosed 104 weeks, study length 104 weeks) was 18900 mg/kg/day. For the same compound, the TD50 (mouse, strain C3HeB/FeJ, males, in feed, site: lung, lesion: several types, types named in the paper, dosed 104 weeks, study length 104 weeks) was 58200 mg/kg/day, the carcinogen call (rat, strain Not specified, males, in feed, site: any site (literature study), lesion: one or several types, types not named, dosed 65 weeks, study length 65 weeks) was “negative (inactive)” and the carcinogen call (rat, strain Osborne-Mendel, females, in feed, site: any site (literature study), lesion: malignant tumor, dosed 104 weeks, study length 104 weeks) was “negative (inactive)”. For the same compound, the carcinogen call (rat, strain Osborne-Mendel, females, in feed, site: any site (literature study), lesion: several types, types named in the paper, dosed 104 weeks, study length 104 weeks) was “negative (inactive)”, the carcinogen call (rat, strain Osborne-Mendel, females, in feed, site: liver, lesion: one or several types, types not named, dosed 104 weeks, study length 104 weeks) was “negative (inactive)” and the carcinogen call (rat, strain Osborne-Mendel, males, in feed, site: any site (literature study), lesion: malignant tumor, dosed 104 weeks, study length 104 weeks) was “negative (inactive)”. For the same compound, the carcinogen call (rat, strain Osborne-Mendel, males, in feed, site: any site (literature study), lesion: several types, types named in the paper, dosed 104 weeks, study length 104 weeks) was “negative (inactive)”, the carcinogen call (rat, strain Osborne-Mendel, males, in feed, site: liver, lesion: hepatocellular adenoma, dosed 104 weeks, study length 104 weeks) was “negative (inactive)” and the TD50 (rat, strain Wistar, both sexes, in feed, site: cecum, lesion: malignant lymphoma, dosed 95 weeks, study length 95 weeks) was 5640 mg/kg/day.

`CCS(=O)(=O)c1ccc(S(N)(=O)=O)c2ccccc12` gave a TD50 (mouse, strain A x IF, females, in feed, site: lung, lesion: adenoma, dosed 100 weeks, study length 100 weeks) of 53.4 mg/kg/day, a TD50 (mouse, strain A x IF, females, in feed, site: urinary bladder, lesion: carcinoma, dosed 100 weeks, study length 100 weeks) of 34.2 mg/kg/day and a TD50 (mouse, strain IF x C57, females, in feed, site: urinary bladder, lesion: carcinoma, dosed 92 weeks, study length 92 weeks) of 15.3 mg/kg/day.
